Among the data in PubChem BioAssay AID1259407 (Chemical Carcinogenesis Research Information System (CCRIS), 2018) are mutagenic call values, retold here.

Each structure is given as a SMILES string. Calls of active or inactive are those of the source. No rule for the calls is given here.

For the series, the system named is CCRIS mutagenicity, Ames/micronucleus/aberration tests. Put plainly: CCRIS mutagenicity studies.
Where [1] appears, read: Test System: AMES SALMONELLA TYPHIMURIUM, Strain/Indicator: TA98, Metabolic Activation: NONE, Method: STANDARD PLATE.
Where [2] appears, read: Test System: AMES SALMONELLA TYPHIMURIUM, Strain/Indicator: TA100, Metabolic Activation: NONE, Method: STANDARD PLATE.
[3] abbreviates: Test System: AMES SALMONELLA TYPHIMURIUM, Strain/Indicator: TA1535, Metabolic Activation: NONE, Method: STANDARD PLATE.
Where [4] appears, read: Test System: AMES SALMONELLA TYPHIMURIUM, Strain/Indicator: TA1537, Metabolic Activation: NONE, Method: STANDARD PLATE.

`CCCOc1ccc(N)cc1N`: the mutagenic call reads like this: (Test System: AMES SALMONELLA TYPHIMURIUM, Strain/Indicator: TA97, Metabolic Activation: RAT, LIVER, S-9, AROCLOR 1254 (4%), Method: STANDARD PLATE) “inactive; negative”; (Test System: AMES SALMONELLA TYPHIMURIUM, Strain/Indicator: TA97, Metabolic Activation: RAT, LIVER, S-9, AROCLOR 1254 (10%), Method: STANDARD PLATE) “active; positive”; (Test System: AMES SALMONELLA TYPHIMURIUM, Strain/Indicator: TA1537, Metabolic Activation: RAT, LIVER, S-9, AROCLOR 1254 (4 OR 10%), Method: STANDARD PLATE) “active; positive”; (Test System: AMES SALMONELLA TYPHIMURIUM, Strain/Indicator: TA1538, Metabolic Activation: RAT, LIVER, S-9, AROCLOR 1254 (4 OR 10%), Method: STANDARD PLATE) “active; positive”.

Turning to `Cn1c(N)nc2nc3ccccc3cc21`, the mutagenic call was “active; positive” (Test System: AMES SALMONELLA TYPHIMURIUM, Strain/Indicator: TA98, Metabolic Activation: RAT, LIVER, S-9, AROCLOR 1254A, Method: STANDARD PLATE) and “active; positive” (Test System: AMES SALMONELLA TYPHIMURIUM, Strain/Indicator: YG1024, Metabolic Activation: RAT, LIVER, S-9, AROCLOR 1254A, Method: STANDARD PLATE).

With `C[C@@H]1O[C@H](C)[C@@H](O)[C@H](O)[C@@H]1OS(=O)(=O)O`, the mutagenic call runs as follows: under setting [1], “inactive; negative”; (Test System: AMES SALMONELLA TYPHIMURIUM, Strain/Indicator: TA98, Metabolic Activation: S-9, Method: STANDARD PLATE) “inactive; negative”; under setting [2], “inactive; negative”; (Test System: AMES SALMONELLA TYPHIMURIUM, Strain/Indicator: TA100, Metabolic Activation: S-9, Method: STANDARD PLATE) “inactive; negative”; under setting [3], “inactive; negative”; (Test System: AMES SALMONELLA TYPHIMURIUM, Strain/Indicator: TA1535, Metabolic Activation: S-9, Method: STANDARD PLATE) “inactive; negative”. Further, the mutagenic call is “inactive; negative” under setting [4]; “inactive; negative” (Test System: AMES SALMONELLA TYPHIMURIUM, Strain/Indicator: TA1537, Metabolic Activation: S-9, Method: STANDARD PLATE); “inactive; negative” (Test System: E. COLI, Strain/Indicator: WP2 UVRA, Metabolic Activation: NONE, Method: STANDARD PLATE); “inactive; negative” (Test System: E. COLI, Strain/Indicator: WP2 UVRA, Metabolic Activation: S-9, Method: STANDARD PLATE).

For `CN(C)c1ccc(NS(=O)(=O)c2cccc3cccnc23)cc1`, the mutagenic call runs as follows: under setting [1], “inactive; negative”; (Test System: AMES SALMONELLA TYPHIMURIUM, Strain/Indicator: TA98, Metabolic Activation: RAT, LIVER, S-9, AROCLOR 1254, Method: STANDARD PLATE) “active; positive”; under setting [2], “inactive; negative”; (Test System: AMES SALMONELLA TYPHIMURIUM, Strain/Indicator: TA100, Metabolic Activation: RAT, LIVER, S-9, AROCLOR 1254, Method: STANDARD PLATE) “active; positive”; under setting [3], “inactive; negative”; (Test System: AMES SALMONELLA TYPHIMURIUM, Strain/Indicator: TA1535, Metabolic Activation: RAT, LIVER, S-9, AROCLOR 1254, Method: STANDARD PLATE) “inactive; negative”. The mutagenic call is “inactive; negative” under setting [4] and “inactive; negative” (Test System: AMES SALMONELLA TYPHIMURIUM, Strain/Indicator: TA1537, Metabolic Activation: RAT, LIVER, S-9, AROCLOR 1254, Method: STANDARD PLATE).

Regarding `c1ccc(N(c2ccccc2)c2ccccc2)cc1`, the mutagenic call reads like this: (Test System: AMES SALMONELLA TYPHIMURIUM, Strain/Indicator: TA97, Metabolic Activation: HAMSTER, LIVER, S-9, AROCLOR 1254 (10 OR 30%), Method: PREINCUBATION) “inactive; negative”; (Test System: AMES SALMONELLA TYPHIMURIUM, Strain/Indicator: TA97, Metabolic Activation: NONE, Method: PREINCUBATION) “inactive; negative”; (Test System: AMES SALMONELLA TYPHIMURIUM, Strain/Indicator: TA97, Metabolic Activation: RAT, LIVER, S-9, AROCLOR 1254 (10 OR 30%), Method: PREINCUBATION) “inactive; negative”; (Test System: AMES SALMONELLA TYPHIMURIUM, Strain/Indicator: TA98, Metabolic Activation: HAMSTER, LIVER, S-9, AROCLOR 1254 (10%), Method: PREINCUBATION) “inactive; negative”; (Test System: AMES SALMONELLA TYPHIMURIUM, Strain/Indicator: TA98, Metabolic Activation: HAMSTER, LIVER, S-9, AROCLOR 1254 (10 OR 30%), Method: PREINCUBATION) “inactive; negative”; (Test System: AMES SALMONELLA TYPHIMURIUM, Strain/Indicator: TA98, Metabolic Activation: NONE, Method: PREINCUBATION) “inactive; negative”. In addition, the mutagenic call (Test System: AMES SALMONELLA TYPHIMURIUM, Strain/Indicator: TA98, Metabolic Activation: RAT, LIVER, S-9, AROCLOR 1254 (10%), Method: PREINCUBATION) is “inactive; negative”; the mutagenic call (Test System: AMES SALMONELLA TYPHIMURIUM, Strain/Indicator: TA98, Metabolic Activation: RAT, LIVER, S-9, AROCLOR 1254 (10 OR 30%), Method: PREINCUBATION) is “inactive; negative”; the mutagenic call (Test System: AMES SALMONELLA TYPHIMURIUM, Strain/Indicator: TA100, Metabolic Activation: HAMSTER, LIVER, S-9, AROCLOR 1254 (10%), Method: PREINCUBATION) was “inactive; negative”; the mutagenic call (Test System: AMES SALMONELLA TYPHIMURIUM, Strain/Indicator: TA100, Metabolic Activation: HAMSTER, LIVER, S-9, AROCLOR 1254 (10 OR 30%), Method: PREINCUBATION) was “inactive; negative”; the mutagenic call (Test System: AMES SALMONELLA TYPHIMURIUM, Strain/Indicator: TA100, Metabolic Activation: NONE, Method: PREINCUBATION) was “inactive; negative”; the mutagenic call (Test System: AMES SALMONELLA TYPHIMURIUM, Strain/Indicator: TA100, Metabolic Activation: RAT, LIVER, S-9, AROCLOR 1254 (10%), Method: PREINCUBATION) was “inactive; negative”. Moreover, the mutagenic call is “inactive; negative” (Test System: AMES SALMONELLA TYPHIMURIUM, Strain/Indicator: TA100, Metabolic Activation: RAT, LIVER, S-9, AROCLOR 1254 (10 OR 30%), Method: PREINCUBATION); “inactive; negative” (Test System: AMES SALMONELLA TYPHIMURIUM, Strain/Indicator: TA1535, Metabolic Activation: HAMSTER, LIVER, S-9, AROCLOR 1254 (10%), Method: PREINCUBATION); “inactive; negative” (Test System: AMES SALMONELLA TYPHIMURIUM, Strain/Indicator: TA1535, Metabolic Activation: HAMSTER, LIVER, S-9, AROCLOR 1254 (10 OR 30%), Method: PREINCUBATION); “inactive; negative” (Test System: AMES SALMONELLA TYPHIMURIUM, Strain/Indicator: TA1535, Metabolic Activation: NONE, Method: PREINCUBATION); “inactive; negative” (Test System: AMES SALMONELLA TYPHIMURIUM, Strain/Indicator: TA1535, Metabolic Activation: RAT, LIVER, S-9, AROCLOR 1254 (10%), Method: PREINCUBATION); “inactive; negative” (Test System: AMES SALMONELLA TYPHIMURIUM, Strain/Indicator: TA1535, Metabolic Activation: RAT, LIVER, S-9, AROCLOR 1254 (10 OR 30%), Method: PREINCUBATION). In addition, the mutagenic call is “inactive; negative” (Test System: AMES SALMONELLA TYPHIMURIUM, Strain/Indicator: TA1537, Metabolic Activation: HAMSTER, LIVER, S-9, AROCLOR 1254 (10%), Method: PREINCUBATION); “inactive; negative” (Test System: AMES SALMONELLA TYPHIMURIUM, Strain/Indicator: TA1537, Metabolic Activation: HAMSTER, LIVER, S-9, AROCLOR 1254 (10 OR 30%), Method: PREINCUBATION); “inactive; negative” (Test System: AMES SALMONELLA TYPHIMURIUM, Strain/Indicator: TA1537, Metabolic Activation: NONE, Method: PREINCUBATION); “inactive; negative” (Test System: AMES SALMONELLA TYPHIMURIUM, Strain/Indicator: TA1537, Metabolic Activation: RAT, LIVER, S-9, AROCLOR 1254 (10%), Method: PREINCUBATION); “inactive; negative” (Test System: AMES SALMONELLA TYPHIMURIUM, Strain/Indicator: TA1537, Metabolic Activation: RAT, LIVER, S-9, AROCLOR 1254 (10 OR 30%), Method: PREINCUBATION).
